Data on one compound can be found in patent publication US9873878B2, “Compositions and methods for use in treating silicosis and lung cancer” (University of Louisville Research Foundation, Inc., priority 2015, dated 2018).

The structures appear in SMILES notation.

This experiment deals with RAW264.7 cells. The experiment is described as follows: CS-induced LTB4 production in RAW264.7 culture supernatants (LTB4 EIA). The experiment is classed as cell-based. To be noted: RAW264.7 cells pre-treated with 10 μM Zileuton for 1 h, then 120 μg/cm^2 CS for 6 h. As for the experimental part:
FIG. 10C depicts LTB4 production by cells in vitro, measured in culture supernatants of RAW264.7 cells exposed to 120 μg/cm^2 CS for 6 h in presence of 5-LO inhibitor.
LKR13 and RAW264.7cells were cultured in DMEM containing 10% FBS. For CS stimulation assays, 0.3 million cells were plated per well of 12-well tissue culture dishes in 400 μl of 1% FBS containing medium. The cells were stimulated for 6 h with 120 μg/cm^2 of CS. Whenever indicated RAW264.7 cells were pre-treated with 10 μM Zileuton (5-LO inhibitor) for 1 h.
Subcutaneous tumors were homogenized in 500 ul 1×PBS buffer containing 10 uM Indomethacin using Omni GLH general homogenizer. The homogenates were centrifuged at 14000 g for 10 min and LTB4 levels in the supernatants were quantified. The LTB4 levels were normalized to the amount of protein in the supernatants measured by Themo Sceintific Pierce BCA protein assay kit following manufacturer's instructions. LTB4 in the tumor homogenate supernatant was expressed as pg/mg of protein. LTB4 in cell culture supernatants, BALF, air pouch lavage and subcutaneous tumors was measured using LTB4 EIA Kit (Cayman Chemical) according to the manufacturer's instructions. IL-1β in cell culture supernatants was measured using Mouse IL-1β ELISA MAX™ Standard Kit (Biolegend) according to the manufacturer's instructions.

As for `CC(c1cc2ccccc2s1)N(O)C(N)=O` (stereo not shown) [Zileuton], the “LTB4 production by CS activation” value is “completely blocked”.
